From ChEMBL document CHEMBL3351609, “Pyrrolopyridines-quinazolines Inhibitors of PKR-Like ER Kinase” (ACS Med Chem Lett, 2015)

What was measured:
[1] = target: T1, Eukaryotic translation initiation factor 2-alpha kinase 3 (Homo sapiens, UniProt Q9NZJ5); assay: Inhibition of recombinant GST-tagged PERK (unknown origin) by LanthaScreen assay
T1 sequence (Q9NZJ5 whole entry): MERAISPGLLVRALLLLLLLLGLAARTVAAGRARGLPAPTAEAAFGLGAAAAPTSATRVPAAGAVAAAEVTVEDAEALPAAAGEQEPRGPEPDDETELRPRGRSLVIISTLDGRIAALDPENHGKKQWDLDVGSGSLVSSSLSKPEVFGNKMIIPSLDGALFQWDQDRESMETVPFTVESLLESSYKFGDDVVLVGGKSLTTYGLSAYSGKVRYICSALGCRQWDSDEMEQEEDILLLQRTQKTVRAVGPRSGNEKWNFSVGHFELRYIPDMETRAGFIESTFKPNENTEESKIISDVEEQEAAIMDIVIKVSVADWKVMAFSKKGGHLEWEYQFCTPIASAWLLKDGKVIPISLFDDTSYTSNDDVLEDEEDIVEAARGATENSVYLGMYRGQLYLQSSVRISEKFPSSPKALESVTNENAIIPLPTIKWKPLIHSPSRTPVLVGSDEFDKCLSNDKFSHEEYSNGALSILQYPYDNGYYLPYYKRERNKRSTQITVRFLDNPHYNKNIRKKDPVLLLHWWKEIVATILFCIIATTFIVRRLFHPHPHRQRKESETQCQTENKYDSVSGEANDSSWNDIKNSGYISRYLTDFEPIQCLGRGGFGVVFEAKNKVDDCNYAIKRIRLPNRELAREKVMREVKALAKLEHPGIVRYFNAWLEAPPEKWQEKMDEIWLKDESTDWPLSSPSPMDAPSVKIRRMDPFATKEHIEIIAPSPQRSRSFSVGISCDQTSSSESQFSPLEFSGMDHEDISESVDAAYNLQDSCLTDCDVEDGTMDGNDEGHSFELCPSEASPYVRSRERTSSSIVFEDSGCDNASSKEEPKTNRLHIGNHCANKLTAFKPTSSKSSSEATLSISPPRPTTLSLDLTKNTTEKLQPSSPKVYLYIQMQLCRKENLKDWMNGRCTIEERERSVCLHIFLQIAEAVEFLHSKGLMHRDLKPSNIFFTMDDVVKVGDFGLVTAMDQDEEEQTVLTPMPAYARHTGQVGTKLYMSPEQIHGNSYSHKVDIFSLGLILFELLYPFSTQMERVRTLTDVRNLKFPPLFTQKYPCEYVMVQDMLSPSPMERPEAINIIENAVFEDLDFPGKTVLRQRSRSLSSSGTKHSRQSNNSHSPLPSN

[2] = target: T1, Eukaryotic translation initiation factor 2-alpha kinase 3; assay: Inhibition of PERK (unknown origin) expressed in HEK293 cells assessed as inhibition of phosphorylation of GFP-eIF2 alpha by cell-based TR-FRET assay

SMILES | IC50 [1] [nM] | IC50 [2] [nM]
COc1cc2ncnc(Nc3ccc4c(c3)CCN4C(=O)Cc3c[nH]c4ccccc34)c2cc1OC | 5.01 | 501
COc1cc2ncnc(Nc3ccc4c(c3)CCN4C(=O)Cn3ccc4ccccc43)c2cc1OC | – | 316
COc1cc2ncnc(Nc3ccc4c(c3)CCN4C(=O)Cc3c(C)[nH]c4cc(F)ccc34)c2cc1OC | 0.631 | 25.1
COc1cc2ncnc(Nc3ccc4c(c3)CCN4C(=O)Cc3cc(F)ccc3F)c2cc1OC | 0.398 | 50.1
COc1cc2ncnc(Nc3ccc4c(c3)CCN4C(=O)Cc3coc4ccccc34)c2cc1OC | – | > 31600
